Test system: Neural progenitor cells with a tdTomato reporter gene
Experiment: Cas9 RNP genome editing in neural progenitor cells pretreated with Bafilomycin A1
Type: cell-based
Settings: cells pretreated 1 hour before Cas9 RNPs added outside the cells; genomic DNA collected after 48 hours, target locus analyzed for Cas9-mediated targeted genomic deletions; FIG. 1
Protocol: Neural progenitor cells with a tdTomato reporter gene were pretreated with Bafilomycin A1 for 1 hour prior to addition of Cas9 RNPs outside of the cells. After 24 hours cells were washed 2× with Heparin to remove any remaining Cas9 RNP outside the cells. After 48 hours genomicDNA was collected and the target locus analyzed for Cas9-mediated targeted genomic deletions.

Compound: CO/C1=C\C(C)=C\[C@@H](C)[C@@H](O)[C@@H](C)C/C(C)=C/C=C/[C@H](OC)[C@@H]([C@@H](C)[C@@H](O)[C@H](C)[C@@]2(O)C[C@@H](O)[C@H](C)[C@@H](C(C)C)O2)OC1=O [bafilomycin A1]
- editing efficiency of 0×NLS-Cas9-2×NLS: no effect
- editing efficiency of cell penetrating Cas9 RNP, 4×NLS-Cas9-2×NLS: specifically increased

Source: patent US20200115688A1, “COMPOSITIONS AND METHODS FOR ENHANCING GENOME EDITING” (The Regents of the University of California, priority 2017, published 2020)
